Measured values as given in patent US20180369195A1, “COMBINATION THERAPY FOR TREATMENT OF MELANOMA” (The Regents of the University of California, priority 2015, published 2018).
“Also recorded” adds a separate entry of the source.

Legend:
[1] = test system: G-361 cell-derived tumor xenografts; assay: G-361 melanoma tumor xenograft growth in athymic nude mice; assay type: in vivo
Protocol: Approximately 1 million G361 melanoma cells in a total volume of 0.1 ml of Matrigel were injected subcutaneously into each lateral flank of NIH III athymic nude mice. The resulting tumors were allowed to grow to a mean starting volume of 146±10 mm^3. […] The resulting tumor volumes were measured every other day for four weeks using calipers. The tumor volumes were calculated using the standard formula: (Width×Length)/2, and changes in tumor volumes were calculated using the formula: 100+{(Tf−Ti)/Ti×100}, where Tf is the final mean tumor volume and Ti is the initial mean tumor volume. At terminal sacrifice, tumor xenografts were harvested, and a portion of each tumor was fixed in 4% para-formaldehyde for 1 hour at room temperature, followed by a phosphate-buffered saline (PBS) wash and subsequently immersed in […] overnight at 4° C. The resulting tissues were embedded in OCT and 10 μm thin sections were taken for immunofluorescence studies.

[2] = test system: MITF-M; assay: MITF-M protein levels in cultured melanoma cells (western blot, immunofluorescence); assay type: cell-based, human
Protocol: Western Blot analyses of samples electrophoretically fractionated on 12% acrylamide gels were carried out as previously described (Wagle et al., J. Clin. Oncol. 2011. 29(22):3085-3096; Nguyen et al., Chem. Biol. Interact. 2010. 186(3):255-266). Enhanced chemiluminescence (ECL) Lightening reagents were used to visualize the primary antibody bound protein bands in nitrocellulose membranes and the results captured on ECL Autoradiography Film (GE Healthcare, Piscataway, N.J.). The western blots employed the following primary antibodies: mouse anti-MITF-M (Thermo-scientific), mouse anti-HSP 90 (BD Biosciences), mouse anti-CDK2, rabbit anti-CDK4, rabbit anti-CDK-6, mouse anti-rabbit BRAF, goat anti-LEF-1, rabbit anti-AXIN, mouse anti-BCL2, (Santa Cruz), rabbit anti-P21, mouse anti-Cyclin D1, rabbit anti-MEK-p, rabbit anti-MEK1/2, rabbit anti-GSK3β rabbit anti-LRP6, rabbit anti-LRP6-phospho (Cell signaling), mouse anti-β-catenin (Invitrogen).

[3] = test system: MITF-M promoter; assay: MITF-M promoter luciferase reporter assay; assay type: cell-based, human; conditions: G361 cells, 24 hours
Protocol: G361 Melanoma cells were cultured to approximately 80% confluency in 6 well adherent culture plates in triplicates for each experimental condition for 24 hours. The cells were then transiently transfected with either a wild-type pGL2-pMITF-333/+120-luciferase reporter plasmid or a similar plasmid with the LEF-1/TCF binding site mutated at −199. pGL2-pMITF-333/+120-ΔLEF-1-luciferase, (ALEF-1) was generated using the following primers: LEF-1 forward, 5′-[…]-3′ (SEQ ID NO:5) and LEF-1 reverse, 5′-[…]-3′ (SEQ ID NO:6).
PCR conditions used were as follows: 30 s hotstart at 95° C., 30 s at 95° C., 1 min at 55° C., 8 min at 68° C. for 16 cycles. Mutagenesis was performed using QuickChange II kit (Aligent) per the manufacturer's instructions. PCR products were extracted and purified using QIAquick Gel Extraction Kit (Qiagen). Sequence was confirmed by automated DNA sequencing (University of California Berkeley Sequencing Facility). […] 20 μl of supernatant from each sample was combined with 100 μl luciferase substrate (Promega) and emitted fluorescence was measured using luminometer, Lumat LB 9507 (EG&G Berthold) and the relative light units (RLU) were recorded. The RLU/μg for each sample was calculated by dividing the data obtained with their specific protein concentration determined by a Bradford assay using 1× BioRad Protein Assay reagent and measuring O.D at 595 nm.

[4] = test system: SK-MEL-2 cells; assay: CCK-8 proliferation assay, SK-MEL-2; assay type: cell-based, human; conditions: for antiproliferation in wild-type BRAF cells: 48 hours
Protocol: […] Cells were treated with 20 μM 1-benzyl I3C every 24 hours for 72 hours and harvested at 24, 48 and 72 hours for western blot and flow cytometric analysis. Cells were treated with 20 μM LiCl or 10 μM BIO for 48 hours before harvesting them for western blots.
Subsequently inhibition of proliferation was assessed using Cell counting Kit-8 (Dojindo) as per the protocol in the user's manual. Briefly, 50 μl of the CCK-8 solution was added to each well along with 450 μl media and incubated for 2-3 hours. The absorbance was read at 450 nm and % inhibition was calculated for each condition standardizing DMSO to zero using the formula: [(100−Value of treatment/Value of DMSO treated control)×100]

[5] = test system: MITF-M transcript; assay: RT-PCR analysis of MITF-M transcripts; assay type: cell-based, human; conditions: for MITF-M transcript levels: 200 μM I3C, 72 hour time course
Protocol: Total RNA was extracted from harvested cells using the RNeasy extraction kit for mammalian cells (obtained from Qiagen, Hercules, Calif.) and spectrophotometrically quantified by absorbance at 260 nm. Reverse transcription (RT) reactions were carried out using RT-MMLV reverse transcriptase (Invitrogen, Eugene, Oreg.) and the cDNA was used for polymerase chain reaction (PCR) reactions using 10 pM of the following primers: MITF-M forward 5′ CCGTCTCTCACTGGATTGGT 3′ (SEQ ID NO:1), MITF-M Reverse 5′ TACTTGGTGGGGTTTTCGAG 3′ (SEQ ID NO:2) GAPDH forward, […] (SEQ ID NO:3) and reverse, […] (SEQ ID NO:4). PCR conditions were as follows: 30 s at 94° C., 30 s at 55° C. and 30 s at 72° C. for 28 cycles. PCR products were electrophoretically fractionated in 1.5% agarose gels containing 0.01% Gel Red (Biotium) for DNA staining along with 1 kb plus DNA ladder (Thermo Scientific) and further visualized by a UV transilluminator.

For `OCc1cn(Cc2ccccc2)c2ccccc12` [1-benzyl I3C, 1-benzyl indole-3-carbinol], the tumor growth ([1]; 1-benzyl I3C 20 mg/kg body weight subcutaneously everyday, 4-week time course, vs vehicle) was “strongly attenuated tumor growth”, the “size of the residual tumors at termination of treatment” value ([1]; 1-benzyl I3C 20 mg/kg, week 4) was “significantly smaller than the vehicle control” and the “MITF-M protein levels (western blot)” value ([2]; G361 and DM738 cells, 1-benzyl I3C, 24, 48, 72 hours) was “significant downregulation of MITF-M”. For the same compound, the “MITF-M protein levels (western blot)” value ([2]; SK-MEL-2 cells (WT BRAF), 1-benzyl I3C, 24, 48, 72 hours) was “significant inhibitory effect on MITF-M protein levels”, the “MITF-M promoter activity (luciferase reporter, WT)” value ([3]; 20 μM 1-benzyl I3C) was “Luciferase activity was significantly abrogated” and the “antiproliferation in wild-type BRAF cells” value [4] was “showed antiproliferation”. The MITF-M transcript level ([5]; G-361, DM738, SK-MEL-2 cells, 1-benzyl I3C) was “concomitant inhibition of MITF-M transcript level”.

For `OCc1c[nH]c2ccccc12` [I3C, indole-3-carbinol], the tumor growth ([1]; I3C 200 mg/kg body weight injected daily, four-week course, vs DMSO vehicle) was “strongly inhibited tumor growth”, the “MITF-M protein levels (western blot)” value ([2]; G-361 and DM738 cells, varying concentrations of I3C, 48 hours) was “strongly down-regulated MITF-M levels” and the “MITF-M protein levels (western blot)” value ([2]; G-361 cells, 48 hours, 200 μM I3C, 10 μM Vemurafenib or 10 μM U0126) was “down regulated”. The “MITF-M protein levels (western blot)” value ([2]; SK-MEL-2 cells (wild type BRAF), I3C) was “expressed high levels of MITF-M protein at all concentrations of I3C; also recorded: no downregulation of MITF-M levels”, the “MITF-M promoter activity (−333/+120 luciferase reporter, WT)” value ([3]; 200 μM I3C) was “strongly down regulated MITF-M promoter activity” and the “sensitivity to anti-proliferative effects” value ([4]; 200 μM I3C, 72 hours, wild type BRAF) was “significantly less sensitive”. The “antiproliferation in wild-type BRAF cells” value [4] was “ineffective”, the MITF-M transcript levels ([5]; G-361 and DM738 cells) was “strongly down regulated MITF-M transcript levels” and the MITF-M transcript levels ([5]; SK-MEL-2 cells) was “modest increase in MITF-M transcript levels”.
